Measured values: ChEMBL document CHEMBL3872214, “Synthesis and evaluation of in vivo antioxidant, in vitro antibacterial, MRSA and antifungal activity of novel substituted isatin N-(2,3,4,6-tetra-O-acetyl-β-d-glucopyranosyl)thiosemicarbazones” (Eur J Med Chem, 2016)
In brackets after ≈: the same amount, converted by molar mass.

Tested on: Staphylococcus epidermidis
Test: Antibacterial activity against Staphylococcus epidermidis ATCC 12228 after 18 to 20 hrs by two-fold microbroth dilution method
Assay type: functional
Conditions: not given
In the case of `CC(=O)OC[C@H]1O[C@@H](NC(=S)N/N=C2/C(=O)N(C)c3ccccc32)[C@H](OC(C)=O)[C@@H](OC(C)=O)[C@@H]1OC(C)=O`, the MIC is reported as 100 µM (≈ 56.5 µg/mL).

Tested on: not listed separately
Test: Cytotoxicity against mouse […] cells after 3 days by MTT assay
Assay type: functional, cell-based
Conditions: 72 h
In the case of `Cc1c2ccncc2c(C)c2c1[nH]c1ccccc12` [ELLIPTECINE], the IC50 is reported as 1270 nM.

Tested on: Rattus norvegicus
Test: (§1) Antioxidant activity in CCL4-intoxicated Wistar albino rat assessed as liver cytosolic glutathione peroxidase activity per mg protein at 100 mg/kg, ip administered for 7 consecutive days after DL-alpha-tocopherol acetate treatment followed by CCL4 dosing measured after 24 hrs by H2O2 based spectrophotometric analysis (reference value: 0.28 +/- 0.01 U)
Assay type: functional
Conditions: not given
With `CC(=O)OC[C@H]1O[C@@H](NC(=S)N/N=C2/C(=O)N(C)c3ccccc32)[C@H](OC(C)=O)[C@@H](OC(C)=O)[C@@H]1OC(C)=O` the Activity was 0.67 U.

Tested on: Escherichia coli
Test: Antibacterial activity against Escherichia coli ATCC 25922 after 18 to 20 hrs by two-fold microbroth dilution method
Assay type: functional
Conditions: not given
For `CC(=O)OC[C@H]1O[C@@H](NC(=S)N/N=C2/C(=O)N(C)c3ccccc32)[C@H](OC(C)=O)[C@@H](OC(C)=O)[C@@H]1OC(C)=O`, the MIC was 12.5 µM (≈ 7.06 µg/mL).

Tested on: not listed separately
Test: Antifungal activity against Saccharomyces cerevisiae SH20 after 72 hrs by agar dilution method
Assay type: functional
Conditions: not given
`CC(=O)OC[C@H]1O[C@@H](NC(=S)N/N=C2/C(=O)N(C)c3ccccc32)[C@H](OC(C)=O)[C@@H](OC(C)=O)[C@@H]1OC(C)=O` gave an MIC of 100 µM (≈ 56.5 µg/mL).

Tested on: not listed separately
Test: Cytotoxicity against human Lu1 cells after 3 days by MTT assay
Assay type: functional, cell-based
Conditions: Lu1, 72 h
Compound `Cc1c2ccncc2c(C)c2c1[nH]c1ccccc12` [ELLIPTECINE] has an IC50 of 1390 nM.

Tested on: Aspergillus niger
Test: Antifungal activity against Aspergillus niger 439 after 72 hrs by agar dilution method
Assay type: functional
Conditions: Aspergillus niger, 439, 72 h
Work on `CC(=O)OC[C@H]1O[C@@H](NC(=S)N/N=C2/C(=O)N(C)c3ccccc32)[C@H](OC(C)=O)[C@@H](OC(C)=O)[C@@H]1OC(C)=O` yielded an MIC of 25 µM (≈ 14.1 µg/mL).

Tested on: Candida albicans
Test: Antifungal activity against Candida albicans ATCC 7754 after 72 hrs by agar dilution method
Assay type: functional
Conditions: ATCC 7754, 72 h
In the case of `CC(=O)OC[C@H]1O[C@@H](NC(=S)N/N=C2/C(=O)N(C)c3ccccc32)[C@H](OC(C)=O)[C@@H](OC(C)=O)[C@@H]1OC(C)=O`, the MIC is reported as 100 µM (≈ 56.5 µg/mL).

Tested on: Klebsiella pneumoniae
Test: Antibacterial activity against Klebsiella pneumoniae ATCC 4352 after 18 to 20 hrs by two-fold microbroth dilution method
Assay type: functional
Conditions: not given
`CC(=O)OC[C@H]1O[C@@H](NC(=S)N/N=C2/C(=O)N(C)c3ccccc32)[C@H](OC(C)=O)[C@@H](OC(C)=O)[C@@H]1OC(C)=O` gave an MIC of 12.5 µM (≈ 7.06 µg/mL).

Tested on: not listed separately
Test: Cytotoxicity against human KB cells after 3 days by MTT assay
Assay type: functional, cell-based
Conditions: 72 h
Compound `Cc1c2ccncc2c(C)c2c1[nH]c1ccccc12` [ELLIPTECINE] has an IC50 of 520 nM.

Tested on: not listed separately
Test: Cytotoxicity against human SW480 cells after 3 days by MTT assay
Assay type: functional, cell-based
Conditions: SW480, 72 h
Compound `Cc1c2ccncc2c(C)c2c1[nH]c1ccccc12` [ELLIPTECINE] has an IC50 of 750 nM.

Tested on: Pseudomonas aeruginosa
Test: Antibacterial activity against Pseudomonas aeruginosa […] after 18 to 20 hrs by two-fold microbroth dilution method
Assay type: functional
Conditions: not given
`CC(=O)OC[C@H]1O[C@@H](NC(=S)N/N=C2/C(=O)N(C)c3ccccc32)[C@H](OC(C)=O)[C@@H](OC(C)=O)[C@@H]1OC(C)=O` showed an MIC of 25 µM (≈ 14.1 µg/mL).

Tested on: Rattus norvegicus
Test: as §1, with “catalase” for “glutathione peroxidase”, “assay” for “spectrophotometric analysis”, “220.15” for “0.28”, “11.43” for “0.01”
Assay type: functional
Conditions: not given
`CC(=O)OC[C@H]1O[C@@H](NC(=S)N/N=C2/C(=O)N(C)c3ccccc32)[C@H](OC(C)=O)[C@@H](OC(C)=O)[C@@H]1OC(C)=O` showed an Activity of 350 U.

Tested on: Klebsiella aerogenes
Test: Antibacterial activity against Enterobacter aerogenes ATCC 13048 after 18 to 20 hrs by two-fold microbroth dilution method
Assay type: functional
Conditions: not given
Compound `CC(=O)OC[C@H]1O[C@@H](NC(=S)N/N=C2/C(=O)N(C)c3ccccc32)[C@H](OC(C)=O)[C@@H](OC(C)=O)[C@@H]1OC(C)=O` has an MIC of 12.5 µM (≈ 7.06 µg/mL).

Tested on: Rattus norvegicus
Test: as §1, with “superoxide dismutase” for “glutathione peroxidase”, “xanthine” for “H2O2”, “assay” for “spectrophotometric analysis”, “5.27” for “0.28”, “0.22” for “0.01”
Assay type: functional
Conditions: not given
With `CC(=O)OC[C@H]1O[C@@H](NC(=S)N/N=C2/C(=O)N(C)c3ccccc32)[C@H](OC(C)=O)[C@@H](OC(C)=O)[C@@H]1OC(C)=O` the Activity was 9.52 U.

Tested on: Staphylococcus aureus
Test: Antibacterial activity against Staphylococcus aureus ATCC 11632 after 18 to 20 hrs by two-fold microbroth dilution method
Assay type: functional
Conditions: not given
`CC(=O)OC[C@H]1O[C@@H](NC(=S)N/N=C2/C(=O)N(C)c3ccccc32)[C@H](OC(C)=O)[C@@H](OC(C)=O)[C@@H]1OC(C)=O` showed an MIC of 100 µM (≈ 56.5 µg/mL).

Tested on: not listed separately
Test: Antifungal activity against Fusarium oxysporum M42 after 72 hrs by agar dilution method
Assay type: functional
Conditions: not given
In the case of `CC(=O)OC[C@H]1O[C@@H](NC(=S)N/N=C2/C(=O)N(C)c3ccccc32)[C@H](OC(C)=O)[C@@H](OC(C)=O)[C@@H]1OC(C)=O`, the MIC is reported as 200 µM (≈ 113 µg/mL).

Tested on: Staphylococcus aureus
Test: Antibacterial activity against methicillin-resistant Staphylococcus aureus 198-1 after 18 to 20 hrs by two-fold microbroth dilution method
Assay type: functional
Conditions: not given
`CC(=O)OC[C@H]1O[C@@H](NC(=S)N/N=C2/C(=O)N(C)c3ccccc32)[C@H](OC(C)=O)[C@@H](OC(C)=O)[C@@H]1OC(C)=O` gave an MIC of 100 µM (≈ 56.5 µg/mL).

Tested on: Staphylococcus aureus
Test: Antibacterial activity against methicillin-resistant Staphylococcus aureus 198-2 after 18 to 20 hrs by two-fold microbroth dilution method
Assay type: functional
Conditions: not given
`CC(=O)OC[C@H]1O[C@@H](NC(=S)N/N=C2/C(=O)N(C)c3ccccc32)[C@H](OC(C)=O)[C@@H](OC(C)=O)[C@@H]1OC(C)=O` gave an MIC of 100 µM (≈ 56.5 µg/mL).

Tested on: not listed separately
Test: Cytotoxicity against human HepG2 cells after 3 days by MTT assay
Assay type: functional, cell-based
Conditions: HepG2, 72 h
`Cc1c2ccncc2c(C)c2c1[nH]c1ccccc12` [ELLIPTECINE] showed an IC50 of 1950 nM.

Tested on: Staphylococcus aureus
Test: Antibacterial activity against methicillin-resistant Staphylococcus aureus 198-3 after 18 to 20 hrs by two-fold microbroth dilution method
Assay type: functional
Conditions: not given
With `CC(=O)OC[C@H]1O[C@@H](NC(=S)N/N=C2/C(=O)N(C)c3ccccc32)[C@H](OC(C)=O)[C@@H](OC(C)=O)[C@@H]1OC(C)=O` the MIC was 100 µM (≈ 56.5 µg/mL).

Tested on: not listed separately
Test: Cytotoxicity against mouse NIH/3T3 cells after 3 days by MTT assay
Assay type: toxicity, NIH3T3
Conditions: not given
`Cc1c2ccncc2c(C)c2c1[nH]c1ccccc12` [ELLIPTECINE] gave an IC50 at 3 days of 320 nM.

Tested on: Bacillus subtilis
Test: Antibacterial activity against Bacillus subtilis ATCC 11774 after 18 to 20 hrs by two-fold microbroth dilution method
Assay type: functional
Conditions: not given
`CC(=O)OC[C@H]1O[C@@H](NC(=S)N/N=C2/C(=O)N(C)c3ccccc32)[C@H](OC(C)=O)[C@@H](OC(C)=O)[C@@H]1OC(C)=O` gave an MIC of 100 µM (≈ 56.5 µg/mL).

Tested on: not listed separately
Test: Cytotoxicity against human MCF7 cells after 3 days by MTT assay
Assay type: functional, cell-based
Conditions: MCF7, 72 h
`Cc1c2ccncc2c(C)c2c1[nH]c1ccccc12` [ELLIPTECINE] showed an IC50 of 530 nM.
